From ChEMBL document CHEMBL6096646, “Sulfonamide-derivatized galactosides selectively target an unexplored binding site in the galectin-9N-terminal domain” (Bioorg Med Chem, 2024) come the findings set out here.

pKd: −log10 of the molar value.

The test has as its target Galectin-7 (Homo sapiens, UniProt P47929). The experiment in a line: Binding affinity to human Galectin-7 assessed as dissociation constant by competitive fluorescence polarization assay. On the technique in general: Fluorescence polarisation rises when a labelled molecule tumbles more slowly, as on binding a larger partner.

Sequence of Galectin-7 (P47929 whole entry): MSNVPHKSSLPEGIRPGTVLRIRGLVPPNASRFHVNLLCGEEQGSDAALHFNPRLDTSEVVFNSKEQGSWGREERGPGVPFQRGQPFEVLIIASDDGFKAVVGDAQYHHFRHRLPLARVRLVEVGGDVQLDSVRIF

What is called pKd is −log10 of the Kd, conventionally taken in molar units. In the case of `O=S(=O)(Nc1ccccc1-c1cn([C@@H]2[C@@H](O)[C@@H](Sc3ccc(Cl)c(Cl)c3)O[C@H](CO)[C@@H]2O)nn1)c1cc(C(F)(F)F)cc(C(F)(F)F)c1`, the pKd is below 3.22. With `CO[C@H]1O[C@H](CO)[C@H](O)[C@H](n2cc(-c3ccccc3NS(=O)(=O)c3cc(C(F)(F)F)cc(C(F)(F)F)c3)nn2)[C@H]1O`, the pKd was below 3.00.
